Values belong to the compound of their own block, whether it stands above or below them.
How the values were obtained:
[1] = biological target: BLT1-T4L; assay: Competition assay of ligands against ^3H-LTB4, BLT1-T4L expressed in P. pastoris; type: binding, guinea pig; settings: for logIC50: log value (negative)
From the text: (§1) For the ligand binding assay of BLT1-T4Ls, the T4L cDNA was integrated into the cDNA, encoding the newly generated thermostable BLT1 mutant with the additional mutation V212A, by the consensus method (residues 1-14 deleted and H83G/K88G/V212A/S309A mutations), with the α-factor PrePro signal sequence and the FLAG tag at the N-terminal, and the PreScission site and the His6 tag at the C-terminal of BLT1 (Hori T. et al., 2010, supra) in the pPIC3.5K vector, using the In-Fusion enzyme (FIG. 7A). The expression vectors were introduced into the yeast Pichia pastoris using an EasyComp kit (Thermo Fisher Scientific). BLT1-T4Ls were expressed in 10 ml cultures, and the membrane fraction was prepared as described previously (Hori T. et al., 2010, supra; Hon T. et al., 2015, supra).
(§2) For the evaluation of the ligand-binding activity of the BLT1 mutants and BLT1-T4Ls, a ^3H-LTB4 binding assay was performed using the BLT1-expressing membrane fractions of COS-7, HEK293, or P. pastoris cells, as described previously (Hori T. et al., 2010, supra; Hori T. et al., 2015, supra). For the evaluation of the thermostability, the membrane fraction was heat-treated before the ^3H-LTB4 binding assay.

[2] = biological target: T1, BLT1 (Cavia porcellus, UniProt H0VYV8); assay: Saturation binding assay of ^3H-LTB4 and BLT1 with various concentrations of benzamidine; set-up: expressed in transfected cells; host or cells: HEK293 (membrane fraction); species or system guinea pig; settings: equilibrium dissociation constant of ^3H-LTB4, global fitting with benzamidine
T1 sequence (H0VYV8 1-348): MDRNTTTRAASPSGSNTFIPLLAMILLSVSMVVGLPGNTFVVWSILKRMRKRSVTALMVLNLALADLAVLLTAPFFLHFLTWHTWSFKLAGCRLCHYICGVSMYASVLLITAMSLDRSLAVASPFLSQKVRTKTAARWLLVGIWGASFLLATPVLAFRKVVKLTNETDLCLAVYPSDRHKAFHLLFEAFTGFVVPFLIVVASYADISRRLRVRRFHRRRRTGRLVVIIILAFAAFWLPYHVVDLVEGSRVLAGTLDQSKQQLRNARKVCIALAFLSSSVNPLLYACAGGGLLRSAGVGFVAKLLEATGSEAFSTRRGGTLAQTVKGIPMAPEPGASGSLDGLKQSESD
Protocol: Each point (±s.e.m.) indicates the mean value of three independent experiments, each with triplicate reactions. […] Each point (±s.e.m.) indicates the mean value of three independent experiments, each with triplicate reactions. […] Each point (±s.e.m.) indicates the mean value of triplicate reactions. For the evaluation of the ligand-binding activity of the BLT1 mutants and BLT1-[…], a ^3H-LTB4 binding assay was performed using the BLT1-expressing membrane fractions of COS-7, HEK293, or P. pastoris cells, as described previously (Hori T. et al., 2010, supra; Hori T. et al., 2015, supra). For the evaluation of the thermostability, the membrane fraction was heat-treated before the ^3H-LTB4 binding assay.

[3] = biological target: BLT1-T4L; assay: Saturation binding of ^3H-LTB4, BLT1-T4L expressed in P. pastoris (membrane fraction); set-up: species or system guinea pig; settings: saturation binding of ^3H-LTB4, ICL3-10 construct
From the text: as §1, §2

[4] = biological target: T1, BLT1; assay: TGFα shedding assay with benzamidine (G-protein activation by LTB4); type: cell-based; set-up: expressed in transfected cells; settings: for logτA: agonist signaling efficacy; for KA / logKA: equilibrium dissociation constant of LTB4; for logKA: log value as printed; for Em: maximum possible signal response
Protocol: Each point (±s.e.m.) indicates the mean value of three independent experiments, each with triplicate reactions. […] Each point (±s.e.m.) indicates the mean value of three independent experiments, each with triplicate reactions. […] Each point (±s.e.m.) indicates the mean value of triplicate reactions. […] To determine the parameters, three steps of fitting procedures were performed.

Ki [1]: 148 nM
SMILES: CCOC(=O)NC(=N)c1ccc(OCc2cccc(COc3ccc(C(C)(C)c4ccc(O)cc4)cc3)c2)cc1
logIC50 [1]: −6.7

SMILES: CCCCC/C=C\C[C@@H](O)/C=C/C=C/C=C\[C@@H](O)CCCC(=O)O [LTB4, leukotriene B4]
Kd [2]: 0.6 nM
Ki [1]: 0.67 nM
logIC50 [1]: −9.0
Kd [3]: 1.2 ± 0.1 nM
logτA ([4]; G16, Em = 20): 0.076
KA ([4]; G16): (KA = 9.2 nM)
logKA ([4]; G16): −8.0
Em ([4]; G16): 27.6
logτA ([4]; Gq/i1, in n = 1, Em = 25): 0.82
KA ([4]; Gq/i1): (KA = 24 nM)
logKA ([4]; Gq/i1): −7.6
Em ([4]; Gq/i1): 26.7

— patent publication US12275687B2 (priority 2017, dated 2025)
